Measured values as given in PubChem BioAssay AID218 (DTP/NCI, 2004).
Values joined by “and” are separate entries in the source; they are usually repeats but may differ in a detail not shown here. Identical values can stand only once. Non-standard residues stand in square brackets, D forms with d. Residues, ends and D or L forms follow the SMILES beside them. Ac5c = NC1(C(=O)O)CCCC1

System: C57BL/6 mice, Adenocarcinoma 755 sc, tumor weight T/C
Assay: NCI In Vivo Anticancer Drug Screen. Data for tumor model Adenocarcinoma 755 (subcutaneous) in C57BL/6 mice
Conditions: endpoint: mean tumor weight, higher = larger tumour
Protocol: The antitumor activity of compounds was measured in mice bearing transplantable tumors. Survival or tumor size were measured and the results are expressed as the measurement made in the treated group (T) divided by the measurement made in the vehicle treated control group (C). The tumor model used in this assay is Adenocarcinoma 755 (subcutaneous) in C57BL/6 mice

[1] = dose: 20.0 mg/kg/injection, schedule: Q01DX011 (ip), vehicle: saline
[2] = dose: 25.0 mg/kg/injection, schedule: Q01DX011 (ip), vehicle: saline
[3] = dose: 50.0 mg/kg/injection, schedule: Q01DX011 (ip), vehicle: saline
[4] = dose: 100.0 mg/kg/injection, schedule: Q01DX011 (ip), vehicle: saline
[5] = dose: 75.0 mg/kg/injection, schedule: Q01DX011 (ip), vehicle: saline
[6] = dose: 150.0 mg/kg/injection, schedule: Q01DX011 (ip), vehicle: saline
[7] = dose: 200.0 mg/kg/injection, schedule: Q01DX011 (ip), vehicle: saline
[8] = dose: 75.0 mg/kg/injection, schedule: Q02DX006 (ip), vehicle: other
[9] = dose: 10.0 mg/kg/injection, schedule: Q01DX011 (ip), vehicle: carboxymethylcellulose (CMC)

CCCCNc1ncnc2[nH]ncc12
T/C (dose: 15.0 mg/kg/injection, schedule: Q01DX011 (ip), vehicle: saline): 31 % of control | T/C [1]: 7 % of control | T/C [2]: 24 % of control

CCn1cnc2c(Cl)ncnc21
T/C [2]: 29 % of control | T/C [3]: 10 % of control | T/C [4]: 1 % of control

CCCCCCCCCNc1ncnc2[nH]ncc12
T/C [3]: 51 % of control | T/C [4]: 64 % of control

NCC(=O)NC1(C(=O)O)CCCC1 (H-Gly-[Ac5c]-OH)
T/C [2]: 58 % of control | T/C [3]: 37 % of control | T/C [4]: 9 % of control

O=c1[nH]c(=O)c2n[nH]nc2[nH]1
T/C [5]: 154 % of control | T/C [6]: 115 % of control

Clc1ccccc1CSc1ncnc2nc[nH]c12
T/C [5]: 13 % of control | T/C [4]: 5 % of control | T/C [6]: 1 % of control | T/C [7]: 13 % of control

CC(C)CNC(=S)N/N=C/c1ccccc1
T/C [8]: 70 % of control | T/C (dose: 100.0 mg/kg/injection, schedule: Q02DX006 (ip), vehicle: other): 94 % of control

S=c1nc[nH]c2n[nH]nc12
T/C (dose: 30.0 mg/kg/injection, schedule: Q02DX006 (ip), vehicle: other): 70 % of control | T/C [8]: 14 % of control

C[N+](C)(C)c1ncnc2nc[nH]c12
T/C (dose: 1.25 mg/kg/injection, schedule: Q#A X022 (ip), vehicle: saline): 95 % of control | T/C (dose: 2.5 mg/kg/injection, schedule: Q01DX011 (ip), vehicle: saline): 109 % of control | T/C (dose: 2.5 mg/kg/injection, schedule: Q01DX011 (sc), vehicle: saline): 56 % of control | T/C (dose: 2.5 mg/kg/injection, schedule: Q#A X022 (ip), vehicle: saline): 93 % of control | T/C (dose: 5.0 mg/kg/injection, schedule: Q01DX011 (ip), vehicle: saline): 52 % of control | T/C (dose: 5.0 mg/kg/injection, schedule: Q01DX011 (sc), vehicle: saline): 34 % of control | T/C (dose: 5.0 mg/kg/injection, schedule: Q#A X022 (ip), vehicle: saline): 40 % of control | T/C (dose: 7.5 mg/kg/injection, schedule: Q03DX004 (ip), vehicle: saline): 77 % of control | T/C (dose: 10.0 mg/kg/injection, schedule: Q01DX006 (iv), vehicle: saline): 50 % of control | T/C (dose: 10.0 mg/kg/injection, schedule: Q01DX011 (ip), vehicle: saline): 12 % of control and 18 % of control | T/C (dose: 10.0 mg/kg/injection, schedule: Q01DX011 (oral), vehicle: saline): 58 % of control | T/C (dose: 10.0 mg/kg/injection, schedule: Q01DX011 (sc), vehicle: saline): 34 % of control | T/C (dose: 10.0 mg/kg/injection, schedule: Q02DX006 (im), vehicle: saline): 54 % of control | T/C (dose: 10.0 mg/kg/injection, schedule: Q#A X022 (ip), vehicle: saline): 13 % of control and 18 % of control | T/C (dose: 15.0 mg/kg/injection, schedule: Q03DX004 (ip), vehicle: saline): 76 % of control | T/C [1]: 6 % of control and 11 % of control and 18 % of control | T/C (dose: 20.0 mg/kg/injection, schedule: Q01DX011 (oral), vehicle: saline): 43 % of control | T/C (dose: 20.0 mg/kg/injection, schedule: Q01DX011 (sc), vehicle: saline): 8 % of control and 16 % of control | T/C (dose: 20.0 mg/kg/injection, schedule: Q02DX006 (im), vehicle: saline): 50 % of control | T/C (dose: 20.0 mg/kg/injection, schedule: Q#A X022 (ip), vehicle: saline): 8 % of control | T/C (dose: 30.0 mg/kg/injection, schedule: Q03DX004 (ip), vehicle: saline): 32 % of control | T/C (dose: 40.0 mg/kg/injection, schedule: Q01DX006 (iv), vehicle: saline): 42 % of control | T/C (dose: 40.0 mg/kg/injection, schedule: Q01DX011 (ip), vehicle: saline): 6 % of control and 9 % of control | T/C (dose: 40.0 mg/kg/injection, schedule: Q01DX011 (oral), vehicle: saline): 12 % of control and 18 % of control | T/C (dose: 40.0 mg/kg/injection, schedule: Q01DX011 (sc), vehicle: saline): 7 % of control | T/C (dose: 40.0 mg/kg/injection, schedule: Q02DX006 (im), vehicle: saline): 39 % of control | T/C (dose: 60.0 mg/kg/injection, schedule: Q03DX004 (ip), vehicle: saline): 16 % of control and 18 % of control | T/C (dose: 75.0 mg/kg/injection, schedule: Q01DX001 (ip), vehicle: saline): 76 % of control and 85 % of control | T/C (dose: 80.0 mg/kg/injection, schedule: Q01DX006 (iv), vehicle: saline): 15 % of control | T/C (dose: 80.0 mg/kg/injection, schedule: Q01DX011 (ip), vehicle: saline): 5 % of control | T/C (dose: 80.0 mg/kg/injection, schedule: Q01DX011 (oral), vehicle: saline): 5 % of control and 10 % of control and 17 % of control | T/C (dose: 80.0 mg/kg/injection, schedule: Q01DX011 (sc), vehicle: saline): 5 % of control | T/C (dose: 80.0 mg/kg/injection, schedule: Q02DX006 (im), vehicle: saline): 20 % of control | T/C (dose: 120.0 mg/kg/injection, schedule: Q03DX004 (ip), vehicle: saline): 10 % of control | T/C (dose: 150.0 mg/kg/injection, schedule: Q01DX001 (ip), vehicle: saline): 47 % of control and 48 % of control | T/C (dose: 160.0 mg/kg/injection, schedule: Q01DX011 (oral), vehicle: saline): 8 % of control | T/C (dose: 160.0 mg/kg/injection, schedule: Q01DX011 (sc), vehicle: saline): 4 % of control | T/C (dose: 300.0 mg/kg/injection, schedule: Q01DX001 (ip), vehicle: saline): 33 % of control and 40 % of control | T/C (dose: 320.0 mg/kg/injection, schedule: Q01DX011 (oral), vehicle: saline): 5 % of control

O=c1[nH][nH]c(=O)[nH]1
T/C [7]: 85 % of control | T/C (dose: 225.0 mg/kg/injection, schedule: Q01DX011 (ip), vehicle: saline): 94 % of control

Nc1nc(=O)[nH]c2n[nH]nc12
T/C (dose: 5.0 mg/kg/injection, schedule: Q01DX011 (ip), vehicle: carboxymethylcellulose (CMC)): 82 % of control | T/C [9]: 79 % of control | T/C (dose: 25.0 mg/kg/injection, schedule: Q01DX011 (ip), vehicle: carboxymethylcellulose (CMC)): 64 % of control

O=CNC(Cc1ccc(N(CCCl)CCCl)cc1)C(=O)O (stereo unspecified)
T/C (dose: 40.0 mg/kg/injection, schedule: Q01DX011 (ip), vehicle: carboxymethylcellulose (CMC)): 39 % of control | T/C (dose: 80.0 mg/kg/injection, schedule: Q01DX011 (ip), vehicle: carboxymethylcellulose (CMC)): 1 % of control

O=c1[nH]c(=O)n(C2CC(O)C(CO)O2)cc1C(F)(F)F (stereo unspecified)
T/C (dose: 12.5 mg/kg/injection, schedule: Q01DX011 (ip), vehicle: saline): 81 % of control | T/C [2]: 52 % of control | T/C [3]: 27 % of control | T/C [4]: 27 % of control

CCOC(N)=O
T/C [7]: 34 % of control | T/C (dose: 300.0 mg/kg/injection, schedule: Q01DX011 (ip), vehicle: saline): 38 % of control | T/C (dose: 400.0 mg/kg/injection, schedule: Q01DX011 (ip), vehicle: saline): 20 % of control | T/C (dose: 500.0 mg/kg/injection, schedule: Q02DX006 (ip), vehicle: water): 49 % of control | T/C (dose: 600.0 mg/kg/injection, schedule: Q01DX011 (ip), vehicle: saline): 3 % of control | T/C (dose: 600.0 mg/kg/injection, schedule: Q02DX006 (ip), vehicle: water): 34 % of control

N/C(=N\N=C\c1cccc([N+](=O)[O-])c1)N[N+](=O)[O-]
T/C (dose: 150.0 mg/kg/injection, schedule: Q02DX006 (ip), vehicle: saline): 24 % of control | T/C (dose: 200.0 mg/kg/injection, schedule: Q02DX006 (ip), vehicle: saline): 41 % of control

O=c1[nH]cc(F)c(=O)[nH]1
T/C [9]: 7 % of control | T/C (dose: 20.0 mg/kg/injection, schedule: Q01DX011 (ip), vehicle: carboxymethylcellulose (CMC)): 61 % of control
